We go through 29 molecules from ChEMBL document CHEMBL5154804, “Species-Selective Targeting of Fungal Hsp90: Design, Synthesis, and Evaluation of Novel 4,5-Diarylisoxazole Derivatives for the Combination Treatment of Azole-Resistant Candidiasis” (J Med Chem, 2022).

As a reminder, the MIC80 is an inhibitory concentration at the 80% level, which refers to growth in some studies and to a panel of isolates in others.

Common to all, as to format: functional
Assay [1] concerns Candida albicans. Nature of the assay: Synergistic antifungal activity against fluconazole-resistant Candida albicans 901 assessed as inhibition of fungal growth in presence of fluconazole by checker board microdilution assay. (Broth dilution looks for growth in wells or tubes with falling amounts of substance.)
Assay [2] has as its system Candida albicans. Briefly: Synergistic antifungal activity against fluconazole-resistant Candida albicans 904 assessed as inhibition of fungal growth in presence of fluconazole by checker board microdilution assay.
The test system of assay [3] is Candida albicans. Briefly: Synergistic antifungal activity against fluconazole-resistant Candida albicans 100 assessed as inhibition of fungal growth in presence of fluconazole by checker board microdilution assay.
In assay [4] the test system is Candida albicans. Nature of the assay: Synergistic antifungal activity against fluconazole-resistant Candida albicans 311 assessed as inhibition of fungal growth in presence of fluconazole by checker board microdilution assay.
Assay [5] relates to Candida albicans. Nature of the assay: Synergistic antifungal activity against fluconazole-resistant Candida albicans 103 assessed as inhibition of fungal growth in presence of fluconazole by checker board microdilution assay.
In assay [6] the test system is Candida albicans. Nature of the assay: Synergistic antifungal activity against fluconazole-resistant Candida albicans 632 assessed as inhibition of fungal growth in presence of fluconazole by checker board microdilution assay.

As to `CCNC(=O)c1noc(-c2cc(-c3ccc(C(C)C)cc3)c(O)cc2O)c1-c1ccc(CN2CCOCC2)cc1`, the MIC80 in assay [1], in assay [2], in assay [3], in assay [4], in assay [5] and in assay [6] was over 64 µg/mL in each case.
For `CCNC(=O)c1noc(-c2cc(-c3ccccc3F)c(O)cc2O)c1-c1ccc(CN2CCOCC2)cc1`, the MIC80 in assay [1], in assay [2], in assay [3], in assay [4], in assay [5] and in assay [6] was over 64 µg/mL in each case.
In the case of `CCNC(=O)c1noc(-c2cc(-c3ccc(C)cc3)c(O)cc2O)c1-c1ccc(CN2CCC(N(C)C)CC2)cc1`, the MIC80 in assay [1] is 16 µg/mL; in assay [2], 4 µg/mL; in assay [3] it was 64 µg/mL; in assay [4], 2 µg/mL; in assay [5], 4 µg/mL; in assay [6], 64 µg/mL.
On to `Cc1ccc(-c2cc(-c3onc(C(=O)N4CCCC4)c3-c3ccc(CN4CCOCC4)cc3)c(O)cc2O)cc1`, for which the MIC80 in assay [1], in assay [2], in assay [3], in assay [4], in assay [5] and in assay [6] was over 64 µg/mL in each case.
Regarding `CCNC(=O)c1noc(-c2cc(-c3ccc(C)cc3)c(O)cc2O)c1-c1ccc(CN2CC(C)CC(C)C2)cc1` (centres undefined), the MIC80 was determined as 0.5 µg/mL in assay [1]; 1 µg/mL in assay [2]; 4 µg/mL in assay [3]; 2 µg/mL in assay [4]; 16 µg/mL in assay [5]; 2 µg/mL in assay [6].
On to `CCNC(=O)c1noc(-c2cc(-c3ccc(C)cc3)c(O)cc2O)c1-c1ccc(CNC2CCCC2)cc1`, for which the MIC80 in assay [1], in assay [2], in assay [3], in assay [4], in assay [5] and in assay [6] was over 64 µg/mL in each case.
Take `CCNC(=O)c1noc(-c2cc(-c3ccc(OC)cc3)c(O)cc2O)c1-c1ccc(CN2CCOCC2)cc1`: the MIC80 in assay [1] stood at 8 µg/mL; in assay [2], 4 µg/mL; in assay [3] it was 8 µg/mL; in assay [4], 16 µg/mL; in assay [5], 8 µg/mL; in assay [6] it was 16 µg/mL.
`Cc1ccc(-c2cc(-c3onc(C(=O)NC(C)C)c3-c3ccc(CN4CCCCC4)cc3)c(O)cc2O)cc1`: the MIC80 in assay [1] is 4 µg/mL; in assay [2], 2 µg/mL; in assay [3] it was 8 µg/mL; in assay [4] it was 8 µg/mL; in assay [5] it was 4 µg/mL; in assay [6], 2 µg/mL.
As to `CCNC(=O)c1noc(-c2cc(-c3ccc(Cl)cc3)c(O)cc2O)c1-c1ccc(CN2CCOCC2)cc1`, the MIC80 in assay [1] was 0.5 µg/mL; in assay [2] it was 0.5 µg/mL; in assay [3], 4 µg/mL; in assay [4], 16 µg/mL; in assay [5] it was 8 µg/mL; in assay [6] it was 8 µg/mL.
Consider `CCNC(=O)c1noc(-c2cc(-c3ccc(-c4ccccc4)cc3)c(O)cc2O)c1-c1ccc(CN2CCOCC2)cc1`, for which the MIC80 in assay [1], in assay [2], in assay [3], in assay [4], in assay [5] and in assay [6] was over 64 µg/mL each time.
Consider `Cc1ccc(-c2cc(-c3onc(C(=O)NC4CCC4)c3-c3ccc(CN4CCOCC4)cc3)c(O)cc2O)cc1`, for which the MIC80 in assay [1] is 8 µg/mL; in assay [2], 4 µg/mL; in assay [3], 16 µg/mL; in assay [4], over 64 µg/mL; in assay [5], 32 µg/mL; in assay [6] it was 64 µg/mL.
Take `CCNC(=O)c1noc(-c2cc(-c3ccc(C)cc3)c(O)cc2O)c1-c1ccc(CNC2CCOCC2)cc1`: the MIC80 in assay [1], in assay [2], in assay [3], in assay [4], in assay [5] and in assay [6] was over 64 µg/mL each time.
Turning to `CCNC(=O)c1noc(-c2cc(-c3ccc(C)cc3)c(O)cc2O)c1-c1ccc(CN2CCSCC2)cc1`, the MIC80 in assay [1] was found to be 0.5 µg/mL; in assay [2] it was 8 µg/mL; in assay [3] it was 2 µg/mL; in assay [4], 2 µg/mL; in assay [5] it was 1 µg/mL; in assay [6] it was 0.5 µg/mL.
For `CCNC(=O)c1noc(-c2cc(-c3ccc(C)cc3)c(O)cc2O)c1-c1ccc(CN2CCC(N3CCOCC3)CC2)cc1`, the MIC80 in assay [1], in assay [2], in assay [3], in assay [4], in assay [5] and in assay [6] was over 64 µg/mL each time.
As for `CCN(CC)C(=O)c1noc(-c2cc(-c3ccc(C)cc3)c(O)cc2O)c1-c1ccc(CN2CCOCC2)cc1`, the MIC80 was 8 µg/mL in assay [1]; 8 µg/mL in assay [2]; 8 µg/mL in assay [3]; 8 µg/mL in assay [4]; 16 µg/mL in assay [5]; 8 µg/mL in assay [6].
For the molecule `CCNC(=O)c1noc(-c2cc(-c3ccc(OC(F)(F)F)cc3)c(O)cc2O)c1-c1ccc(CN2CCOCC2)cc1`, the MIC80 in assay [1], in assay [2], in assay [3], in assay [4], in assay [5] and in assay [6] was over 64 µg/mL in each case.
As for `Cc1ccc(-c2cc(-c3onc(C(=O)N(C)C)c3-c3ccc(CN4CCCCC4)cc3)c(O)cc2O)cc1`, the MIC80 in assay [1] was determined as 16 µg/mL; in assay [2] it was 8 µg/mL; in assay [3], 8 µg/mL; in assay [4], 16 µg/mL; in assay [5], 16 µg/mL; in assay [6], 8 µg/mL.
Turning to `Cc1ccc(-c2cc(-c3onc(C(=O)N4CCC4)c3-c3ccc(CN4CCOCC4)cc3)c(O)cc2O)cc1`, the MIC80 in assay [1] is 16 µg/mL; in assay [2] it was 16 µg/mL; in assay [3] it was 8 µg/mL; in assay [4], over 64 µg/mL; in assay [5], over 64 µg/mL; in assay [6], over 64 µg/mL.
As to `CCNC(=O)c1noc(-c2cc(-c3cccc(F)c3)c(O)cc2O)c1-c1ccc(CN2CCOCC2)cc1`, the MIC80 in assay [1] was found to be 2 µg/mL; in assay [2], 1 µg/mL; in assay [3] it was 8 µg/mL; in assay [4] it was 4 µg/mL; in assay [5], 16 µg/mL; in assay [6], 2 µg/mL.
For `Cc1ccc(-c2cc(-c3onc(C(=O)NC4COC4)c3-c3ccc(CN4CCOCC4)cc3)c(O)cc2O)cc1`, the MIC80 in assay [1], in assay [2], in assay [3], in assay [4], in assay [5] and in assay [6] was over 64 µg/mL in each case.
As to `CCNC(=O)c1noc(-c2cc(-c3ccccc3Cl)c(O)cc2O)c1-c1ccc(CN2CCOCC2)cc1`, the MIC80 in assay [1], in assay [2], in assay [3], in assay [4], in assay [5] and in assay [6] was over 64 µg/mL in each case.
In the case of `CCN(CC)C(=O)c1noc(-c2cc(-c3ccc(C)cc3)c(O)cc2O)c1-c1ccc(CN2CCCCC2)cc1`, the MIC80 came to 4 µg/mL in assay [1]; 8 µg/mL in assay [2]; 4 µg/mL in assay [3]; 4 µg/mL in assay [4]; 2 µg/mL in assay [5]; 4 µg/mL in assay [6].
With `CCNC(=O)c1noc(-c2cc(-c3ccc(C(F)(F)F)cc3)c(O)cc2O)c1-c1ccc(CN2CCOCC2)cc1`, the MIC80 in assay [1], in assay [2], in assay [3], in assay [4], in assay [5] and in assay [6] was over 64 µg/mL each time.
As to `Cc1ccc(-c2cc(-c3onc(C(=O)N4CCC4)c3-c3ccc(CN4CCCCC4)cc3)c(O)cc2O)cc1`, the MIC80 in assay [1] is 16 µg/mL; in assay [2] it was over 64 µg/mL; in assay [3] it was over 64 µg/mL; in assay [4], 16 µg/mL; in assay [5], over 64 µg/mL; in assay [6] it was over 64 µg/mL.
Turning to `CCNC(=O)c1noc(-c2cc(-c3cccc(C(F)(F)F)c3)c(O)cc2O)c1-c1ccc(CN2CCOCC2)cc1`, the MIC80 in assay [1], in assay [2], in assay [3], in assay [4], in assay [5] and in assay [6] was over 64 µg/mL throughout.
Regarding `Cc1ccc(-c2cc(-c3onc(C(=O)NC(C)C)c3-c3ccc(CN4CCOCC4)cc3)c(O)cc2O)cc1`, the MIC80 in assay [1] is 8 µg/mL; in assay [2] it was 4 µg/mL; in assay [3], 16 µg/mL; in assay [4], 64 µg/mL; in assay [5], 64 µg/mL; in assay [6] it was 8 µg/mL.
In the case of `CCNC(=O)c1noc(-c2cc(-c3ccc(CC)cc3)c(O)cc2O)c1-c1ccc(CN2CCOCC2)cc1`, the MIC80 is 0.5 µg/mL in assay [1]; 0.5 µg/mL in assay [2]; 4 µg/mL in assay [3]; 1 µg/mL in assay [4]; 2 µg/mL in assay [5]; 2 µg/mL in assay [6].
For the molecule `CCCNC(=O)c1noc(-c2cc(-c3ccc(C)cc3)c(O)cc2O)c1-c1ccc(CN2CCCCC2)cc1`, the MIC80 was determined as 4 µg/mL in assay [1]; 2 µg/mL in assay [2]; 8 µg/mL in assay [3]; 8 µg/mL in assay [4]; 4 µg/mL in assay [5]; 4 µg/mL in assay [6].
In the case of `CCCNC(=O)c1noc(-c2cc(-c3ccc(C)cc3)c(O)cc2O)c1-c1ccc(CN2CCOCC2)cc1`, the MIC80 was found to be 4 µg/mL in assay [1]; 4 µg/mL in assay [2]; 16 µg/mL in assay [3]; 64 µg/mL in assay [4]; 32 µg/mL in assay [5]; 32 µg/mL in assay [6].
